According to patent US20240027453A1, “METHOD FOR DETECTION AND QUANTITATIVE MONITORING OF INFECTIONS WITH HERPESVIRUSES” (The Trustees of Princeton University, priority 2020, published 2024):
Like-named read-outs stand apart in the source and are kept apart here.

Test system: HCMV
Format: cell-based
Settings: FIG. 7A
In short: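 Viral protein levels come from parallel reaction monitoring on a Q Exactive HF: trypsin digests of infected-cell lysates, quantified as summed transition areas, normalized to host control peptides, averaged across peptides per protein. Cells were MRC5 fibroblasts, infected at MOI 3 (HSV-1 or HCMV) after 12 h compound pretreatment, with re-dosing every 24 h.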
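For UL32 (P08318) protein level in this document: each peptide scaled to its average across all runs.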
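For UL38 (P16779) protein level in this document: each peptide scaled to its average across all runs.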
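For UL78 (P16751) protein level in this document: each peptide scaled to its average across all runs.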
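For UL95 (P16801) protein level in this document: each peptide scaled to its average across all runs.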

## Oc1ccc(C=Cc2cc(O)cc(O)c2)cc1 [Resveratrol]
Timepoint 24, DE
  CVC2 (P16726) protein level: 0.02416
  DBP (P17147) protein level: 0.2603
  HELI (P16736) protein level: 0.5239
  IR01 (P09710) protein level: 0.2395
  NEC2 (P16791) protein level: 0.05031
  TRM1 (P16724) protein level: 0.0496
  UL4 (P17146) protein level: 0.02792
  UL26 (P16762) protein level: 0.08745
  UL32 (P08318) protein level: 0.02724
  UL34 (P16812) protein level: 0.1096
  UL38 (P16779) protein level: 0.9691
  UL44 (P16790) protein level: 0.0591
  UL48 (P16785) protein level: 0.02194
  UL54 (P08546) protein level: 0.6295
  UL71 (P16823) protein level: 0.5252
  UL78 (P16751) protein level: 1.896
  UL84 (P16727) protein level: 0.1406
  UL95 (P16801) protein level: 0.06756
  UL96 (P16787) protein level: 0.4727
  UL97 (P16788) protein level: 0.3652
  UL98 (P16789) protein level: 0.2979
  UL102 (P16827) protein level: 0.889
  UL104 (P16735) protein level: 0.07335
  UL112/UL113 (P17151) protein level: 0.3601
  UL114 (P16769) protein level: 0.8008
  UL119/UL118 (P16739) protein level: 0.5596
  UL128 (P16837) protein level: 0.08035
  US8 (P09730) protein level: 0.9856
  US9 (P09729) protein level: 1.12
  US12 (P09721) protein level: 1.673
  US13 (P09720) protein level: 0.5476
  US14 (P09719) protein level: 0.3883
  US22 (P09722) protein level: 0.3379
  US23 (P09701) protein level: 1.209
  US24 (P09700) protein level: 1.019
  US34 (P09709) protein level: 2.475
  gB (P06473) protein level: 0.2035
Timepoint 24, IE
  IRS1 (P09715) protein level: 0.53
  TRS1 (P09695) protein level: 0.2907
  UL13 (P16755) protein level: 2.216
  UL36 (P16767) protein level: 1.36
  UL37 (P16778) protein level: 0.9797
  UL122 (P19893) protein level: 0.06584
  UL123 (P13202) protein level: 1.053
Timepoint 24, L
  CVC1 (P16799) protein level: 0.1335
  IR11 (P16809) protein level: 0.4092
  MCP (P16729) protein level: 0.005554
  TRM2 (P16792) protein level: 0.01236
  UL22A (P16845) protein level: 0.06878
  UL25 (P16761) protein level: 0.02173
  UL29 (P16764) protein level: 0.6989
  UL31 (P16848) protein level: 0.4434
  UL43 (P16781) protein level: 0.0621
  UL52 (P16793) protein level: 0.02488
  UL80 (P16753) protein level: 0.03642
  UL82 (P06726) protein level: 0.2024
  UL88 (P16731) protein level: 0.05174
  UL94 (P16800) protein level: 0.1027
  UL99 (P13200) protein level: 0.04805
  UL103 (P16734) protein level: 0.3861
  UL117 (P16770) protein level: 0.7439
  gH (P12824) protein level: 0.08651
  gL (P16832) protein level: 0.03756
  gM (P16733) protein level: 0.04047
  gN (P16795) protein level: 0.1854
Timepoint 24, LL
  DUT (P16824) protein level: 0.3815
  IR12 (P16810) protein level: 0.1305
  TRX1 (P16783) protein level: 0.007402
  TRX2 (P16728) protein level: 0.006335
  UL24 (P16760) protein level: 0.115
  UL40 (P16780) protein level: 0.6816
  UL47 (P16784) protein level: 0.01314
  UL49 (P16786) protein level: 0.3801
  UL69 (P16749) protein level: 0.259
  UL70 (P17149) protein level: 0.2151
  UL83 (P06725) protein level: 0.04868
  UL132 (P69338) protein level: 0.1519
  US15 (P09718) protein level: 2.089
Timepoint 48, DE
  CVC2 (P16726) protein level: 0.04895
  DBP (P17147) protein level: 0.3174
  HELI (P16736) protein level: 0.7035
  IR01 (P09710) protein level: 0.3325
  NEC2 (P16791) protein level: 0.1347
  RIR1 (P16782) protein level: 0.1467
  TRM1 (P16724) protein level: 0.1744
  UL4 (P17146) protein level: 0.1071
  UL26 (P16762) protein level: 0.09224
  UL32 (P08318) protein level: 0.06407
  UL34 (P16812) protein level: 0.1265
  UL35 (P16766) protein level: 0.02653
  UL38 (P16779) protein level: 0.8069
  UL44 (P16790) protein level: 0.09657
  UL48 (P16785) protein level: 0.05393
  UL54 (P08546) protein level: 0.9464
  UL71 (P16823) protein level: 0.3661
  UL78 (P16751) protein level: 1.07
  UL84 (P16727) protein level: 0.1489
  UL95 (P16801) protein level: 0.2914
  UL96 (P16787) protein level: 0.3861
  UL97 (P16788) protein level: 0.3732
  UL98 (P16789) protein level: 0.3412
  UL102 (P16827) protein level: 1.27
  UL104 (P16735) protein level: 0.1091
  UL112/UL113 (P17151) protein level: 0.4545
  UL114 (P16769) protein level: 1.322
  UL119/UL118 (P16739) protein level: 0.6367
  UL128 (P16837) protein level: 0.03596
  US8 (P09730) protein level: 1.343
  US9 (P09729) protein level: 2.242
  US12 (P09721) protein level: 0.8964
  US13 (P09720) protein level: 0.5923
  US14 (P09719) protein level: 0.2304
  US22 (P09722) protein level: 0.5371
  US23 (P09701) protein level: 0.5982
  US24 (P09700) protein level: 0.4857
  US34 (P09709) protein level: 2.409
  gB (P06473) protein level: 0.1991
Timepoint 48, IE
  IRS1 (P09715) protein level: 0.8671
  TRS1 (P09695) protein level: 0.7123
  UL13 (P16755) protein level: 0.6646
  UL36 (P16767) protein level: 1.045
  UL37 (P16778) protein level: 1.143
